Experimental data as given in PubChem BioAssay AID1224920 (Broad Institute, 2016).
pIC50: −log10 of the molar value. Values joined by “and” are separate entries in the source; they are usually repeats but may differ in a detail not shown here. Equal entries are not always repeated. Active and inactive are the calls of the source.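 The calls were made as follows: active = IC50 no higher than ten times the top tested dose; inconclusive = flat fit with 30 to 70% inhibition, or poor fit; inactive = IC50 above ten times the top dose.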

Columns and labels:
[1] = growth modulation of Clostridium difficile isolate – OD600, 9-point, retest, dose response (AID 1224920); settings: Clostridium difficile clinical isolate growth, OD600, 24 h;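 also: inhibitors lower culture turbidity so OD600 falls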;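 as to activity change, negative = inhibition: plate controls were DMSO for no effect and levofloxacin control for full effect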
[2] = tested on: Clostridium difficile clinical isolate growth, OD600, 24 h; experiment: as above

Row | Compound | pIC50 [2] | other results
1 | Cc1cccc(-c2ccc([C@@H]3[C@@H](CO)N4CCCCN(CCC(F)(F)F)C[C@@H]34)cc2)c1 |  | activity change, negative = inhibition ([1]; at 30 µM (top of the series)): 25% (inactive)
2 | COc1ccc(-c2ccccc2[C@@H]2[C@@H](C#N)N(C(=O)NC3CCCC3)[C@H]2CO)cc1 |  | activity change, negative = inhibition ([1]; at 68 µM (top of the series)): -5% (inactive)
3 | COc1cccc(-c2ccc3c(c2)[C@@H]2[C@@H](CCN2Cc2ccccc2OC)[C@@H](CO)N3)c1 |  | activity change, negative = inhibition ([1]; at 30 µM (top of the series)): -7.43% (inactive)
4 | C/C=C/c1ccc(C2[C@@H]3CN(C(=O)Nc4ccc(F)cc4)C[C@H]2N3)cc1 (some centres undefined) |  | activity change, negative = inhibition ([1]; at 68 µM (top of the series)): 49.5% (inactive)
5 | O=C(c1ccc2c(c1)OCO2)N1C[C@@H]2N[C@H](C1)C2c1ccc(-c2ccccc2F)cc1 (some centres undefined) |  | activity change, negative = inhibition ([1]; at 68 µM (top of the series)): 31.1% (inactive)
6 | C[C@H](CO)N1C[C@H](C)[C@@H](CN(C)S(=O)(=O)c2ccc(Cl)cc2)Oc2c(NS(=O)(=O)c3ccccc3)cccc2C1=O |  | activity change, negative = inhibition ([1]; at 120 µM (top of the series)): -3.11% (inactive)
7 | N#Cc1ccc(-c2ccc(C3[C@H]4CNC[C@@H]3N4C(=O)Nc3ccc(Cl)cc3)cc2)cc1 (some centres undefined) |  | activity change, negative = inhibition ([1]; at 135 µM (top of the series)): 25.9% (inactive)
8 | CC(=O)N(C)C[C@H]1[C@H](c2ccc(-c3ccccc3F)cc2)[C@@H](CO)N1C(C)=O |  | activity change, negative = inhibition ([1]; at 120 µM (top of the series)): -11.8% (inactive)
9 | CN(C)C(=O)c1cccc(-c2ccc([C@@H]3[C@H]4CN(C(=O)C5CCCCC5)CC(=O)N4[C@H]3CO)cc2)c1 |  | activity change, negative = inhibition ([1]; at 120 µM (top of the series)): -5.65% (inactive)
10 | C[C@H]1CN([C@@H](C)CO)C(=O)c2cccc(NC(=O)c3nc4ccccc4s3)c2O[C@H]1CN(C)S(=O)(=O)c1ccc(F)cc1 |  | activity change, negative = inhibition ([1]; at 60 µM (top of the series)): 0.765% (inactive)
11 | Cc1ccccc1-c1ccc([C@@H]2[C@@H](CO)N3CCCCN(S(=O)(=O)c4ccc(F)cc4)C[C@H]23)cc1 |  | activity change, negative = inhibition ([1]; at 120 µM (top of the series)): -1.33% (inactive)
12 | CC(=O)N1[C@@H](CO)[C@H](c2ccccc2)[C@@H]1CN(C)C(=O)CN1CCOCC1 |  | activity change, negative = inhibition ([1]; at 120 µM (top of the series)): -5.04% (inactive)
13 | O=C(Nc1cccc(F)c1)N1CCCCN2[C@H](CO)[C@@H](c3ccc(-c4ccccc4F)cc3)[C@@H]2C1 |  | activity change, negative = inhibition ([1]; at 120 µM (top of the series)): 39.6% (inactive)
14 | COc1ccccc1-c1ccc(C2[C@@H]3CN(Cc4nccs4)C[C@H]2N3)cc1 (some centres undefined) |  | activity change, negative = inhibition ([1]; at 68 µM (top of the series)): 37.9% (inactive)
15 | N#C[C@@H]1[C@@H](c2ccccc2-c2ccc(F)cc2)[C@H](CO)N1C(=O)NC1CCCC1 |  | activity change, negative = inhibition ([1]; at 135 µM (top of the series)): 14% (inactive)
16 | CC(=O)NC[C@H]1[C@@H](c2ccc(-c3cccc(F)c3)cc2)[C@@H](CO)N1C(C)=O |  | activity change, negative = inhibition ([1]; at 135 µM (top of the series)): -7.05% (inactive)
17 | COc1ccc(NC(=O)N2CC[C@H]3[C@@H]2c2cc(Br)ccc2N(C)[C@H]3CO)cc1 |  | activity change, negative = inhibition ([1]; at 135 µM (top of the series)): 4.83% (inactive)
18 | O=C(C[C@H]1CC[C@@H]2[C@H](COC[C@H](O)CN2C(=O)Nc2ccc(C(F)(F)F)cc2)O1)NC1Cc2ccccc2C1 | 4.44 | 
19 | O=C(C[C@H]1CC[C@H]2[C@@H](COC[C@H](O)CN2C(=O)Nc2cc(Cl)cc(Cl)c2)O1)N1CCOCC1 | 4.82 | 
20 | Fc1cccc(CN2[C@@H]3CNC[C@H]2C3c2ccc(-c3cccc(F)c3)cc2)c1 (some centres undefined) | 4.55 | 
21 | OC[C@@H]1[C@H](c2ccc(C3=CCCCC3)cc2)[C@@H]2CN(CCC(F)(F)F)CCCCN12 | 4.46 | 
22 | COc1cccc(-c2ccc(C3[C@@H]4CN(Cc5cccc(F)c5)C[C@H]3N4)cc2)c1 (some centres undefined) | 5.02 and 5.12 | 
23 | Fc1ccc(-c2ccc(C3[C@@H]4CN(Cc5nccs5)C[C@H]3N4)cc2)cc1 (some centres undefined) | 4.20 | 
24 | O=S(=O)(c1ccccc1F)N1[C@@H]2CNC[C@H]1C2c1ccc(/C=C/c2ccccc2)cc1 (some centres undefined) | 4.13 | 
25 | O=C(c1ccc(F)cc1)N1C[C@@H]2N[C@H](C1)C2c1ccc(/C=C/c2ccccc2)cc1 (some centres undefined) | 4.89 | 
26 | COc1ccc(S(=O)(=O)N2[C@@H]3CNC[C@H]2C3c2ccc(-c3cccc(C)c3)cc2)cc1 (some centres undefined) | 4.08 | 
27 | CCNC(=O)C[C@H]1CC[C@@H]2[C@H](COC[C@H](O)CN2C(=O)Nc2ccc(C(F)(F)F)cc2)O1 | 5.02 | 

Row | Compound | pIC50 [2] | other results
28 | OC[C@@H]1Nc2ccc(C#Cc3ccc(F)cc3)cc2[C@H]2NCC[C@@H]12 | 4.23 | 
29 | COc1cc(CN2[C@@H]3CNC[C@H]2C3c2ccc(-c3ccc(C#N)cc3)cc2)cc(OC)c1 (some centres undefined) | 4.32 | 
30 | COc1cccc(CN2[C@@H]3CNC[C@H]2C3c2ccc(-c3cccc(OC)c3)cc2)c1 (some centres undefined) | 4.88 | 
31 | COc1cccc(-c2ccc3c(c2)[C@H]2[C@H](CCN2Cc2ccccc2OC)[C@H](CO)N3)c1 | 4.25 | 
32 | Fc1cccc(CN2C[C@@H]3N[C@H](C2)C3c2ccc(/C=C/c3ccccc3)cc2)c1 (some centres undefined) | 5.74 and 5.35 | 
33 | Cc1cccc(-c2ccc(C3[C@@H]4CN(C(=O)Nc5ccc(F)cc5)C[C@H]3N4)cc2)c1 (some centres undefined) | 4.91 | 
34 | N#Cc1cccc(-c2ccc(C3[C@H]4CNC[C@@H]3N4Cc3cccc(F)c3)cc2)c1 (some centres undefined) | 4.25 | 
35 | Cc1cccc(S(=O)(=O)N2C[C@@H]3N[C@H](C2)C3c2ccc(-c3ccccc3F)cc2)c1 (some centres undefined) | 4.95 | 
36 | COc1ccccc1CN1C[C@@H]2N[C@H](C1)C2c1ccc(/C=C/c2ccccc2)cc1 (some centres undefined) | 5.43 and 4.72 | 
37 | C(=C\c1ccc(C2[C@@H]3CN(Cc4cocn4)C[C@H]2N3)cc1)/c1ccccc1 (some centres undefined) | 4.96 | 
38 | CC(C)CC#Cc1ccc([C@@H]2[C@@H](CO)N3CCCCN(C(=O)Nc4ccccc4)C[C@H]23)cc1 | 4.96 | 
39 | COc1ccc(C#Cc2ccc([C@@H]3[C@H](CO)N4CCCCN(Cc5ccccc5F)C[C@@H]34)cc2)cc1 | 5.09 | 
40 | Cc1ccccc1-c1ccc(C2[C@@H]3CN(C(=O)Cc4ccccc4)C[C@H]2N3)cc1 (some centres undefined) | 4.21 and 4.17 | 
41 | Cc1cccc(-c2ccc(C3[C@H]4CNC[C@@H]3N4C(=O)Nc3ccccc3Cl)cc2)c1 (some centres undefined) | 4.48 | 
42 | COc1cccc(CN2C[C@@H]3N[C@H](C2)C3c2ccc(-c3ccccc3C)cc2)c1 (some centres undefined) | 5.26 and 4.88 | 
43 | O=C(Nc1cccc(F)c1)N1C[C@@H]2N[C@H](C1)C2c1ccc(-c2ccccc2F)cc1 (some centres undefined) | 4.57 and 4.19 | 
44 | COc1cccc(-c2ccc(C3[C@H]4CNC[C@@H]3N4Cc3cc(F)ccc3F)cc2)c1 (some centres undefined) | 4.52 | 
45 | O=C(Nc1ccccc1)N1CCCCN2[C@@H](CO)[C@H](c3ccc(C#Cc4ccccc4)cc3)[C@@H]2C1 | 4.72 | 
46 | N#Cc1cccc(-c2ccc(C3[C@@H]4CN(C(=O)Nc5ccc(C(F)(F)F)cc5)C[C@H]3N4)cc2)c1 (some centres undefined) | 4.93 and 5.11 | 
47 | O=C(Nc1ccc(F)cc1)N1[C@@H]2CNC[C@H]1C2c1ccc(-c2ccccc2)cc1 (some centres undefined) | 4.08 | 
48 | COc1cccc(CN2C[C@@H]3N[C@H](C2)C3c2ccc(-c3cccc(C#N)c3)cc2)c1 (some centres undefined) | 4.12 and 4.51 | 
49 | COc1ccc(C#Cc2ccc([C@H]3[C@H](CO)N4CCCCN(Cc5ccccc5F)C[C@@H]34)cc2)cc1 | 4.96 | 
50 | Cc1ccccc1-c1ccc(C2[C@H]3CNC[C@@H]2N3S(=O)(=O)c2ccccc2C)cc1 (some centres undefined) | 4.50 | 
51 | COc1cccc(-c2ccc(C3[C@@H]4CN(S(=O)(=O)c5cccc(OC)c5)C[C@H]3N4)cc2)c1 (some centres undefined) | 4.61 | 
52 | Fc1ccc(-c2ccc(C3[C@@H]4CN(Cc5ccccc5)C[C@H]3N4)cc2)cc1 (some centres undefined) | 5.23 and 4.50 | 
53 | COc1cccc(-c2ccc(C3[C@H]4CNC[C@@H]3N4Cc3ccc4c(c3)OCO4)cc2)c1 (some centres undefined) | 4.52 | 
54 | Cc1cccc(-c2ccc(C3[C@H]4CNC[C@@H]3N4C(=O)Nc3ccc(F)cc3)cc2)c1 (some centres undefined) | 4.51 | 

Row | Compound | pIC50 [2] | other results
55 | COc1ccc(C#Cc2ccc([C@H]3[C@@H](CO)N4CCCCN(C(=O)Nc5cccc(F)c5)C[C@H]34)cc2)cc1 | 5.35 | 
56 | COc1ccccc1C#Cc1ccc2c(c1)[C@H]1[C@H](CCN1C(=O)c1ccc(F)cc1)[C@H](CO)N2 | 6.12 | 
57 | COc1ccc(C#Cc2ccc([C@@H]3[C@@H](CO)N4CCCCN(C(=O)Nc5cccc(F)c5)C[C@H]34)cc2)cc1 | 4.84 | 
58 | COc1ccc(C#Cc2ccc([C@H]3[C@@H](CO)N4CCCCN(Cc5ccccc5F)C[C@H]34)cc2)cc1 | 5.31 | 
59 | Cc1ccc(-c2ccc([C@H]3[C@@H](CO)N4CCCCN(S(=O)(=O)c5cccc(C)c5)C[C@H]34)cc2)cc1 | 4.86 | 
60 | O=C(Nc1ccccc1)N1C[C@@H]2N[C@H](C1)C2c1ccc(-c2ccccc2F)cc1 (some centres undefined) | 4.28 | 
61 | COc1cccc(-c2ccc(C3[C@@H]4CN(S(=O)(=O)c5ccccc5F)C[C@H]3N4)cc2)c1 (some centres undefined) | 4.09 | 
62 | O=C(NC[C@H]1N[C@H](CO)[C@@H]1c1ccc(C2=CCCCC2)cc1)c1ccccc1 | 4.24 | 
63 | COc1cccc(S(=O)(=O)N2C[C@@H]3N[C@H](C2)C3c2ccc(-c3ccccc3F)cc2)c1 (some centres undefined) | 4.58 | 
64 | O=C(Nc1ccccc1F)N1CCCCN2[C@H](CO)[C@@H](c3ccc(/C=C/c4ccccc4)cc3)[C@H]2C1 | 4.66 | 
65 | COc1ccccc1NC(=O)N1CCCCN2[C@@H](CO)[C@@H](c3ccc(-c4ccc(C)cc4)cc3)[C@@H]2C1 | 4.54 | 
66 | Cc1ccc(-c2ccc([C@@H]3[C@@H](CO)N4CCCCN(C(=O)c5ccc(F)cc5)C[C@H]34)cc2)cc1 | 4.46 | 
67 | O=C(Nc1ccccc1)N1CCCCN2[C@H](CO)[C@@H](c3ccc(C#Cc4ccccc4)cc3)[C@H]2C1 | 4.48 | 
68 | COc1cc(CN2[C@@H]3CNC[C@H]2C3c2ccc(-c3ccccc3)cc2)cc(OC)c1 (some centres undefined) | 4.83 | 
69 | Cc1ccc(-c2ccc([C@@H]3[C@H](CO)N4CCCCN(C(=O)Nc5cccc(F)c5)C[C@@H]34)cc2)cc1 | 5.19 | 
70 | O=C(C1CCCCC1)N1C[C@@H]2N[C@H](C1)C2c1ccc(-c2ccccc2F)cc1 (some centres undefined) | 4.25 | 
71 | O=C(NC1CCCCC1)N1C[C@@H]2N[C@H](C1)C2c1ccc(-c2cccc(F)c2)cc1 (some centres undefined) | 4.21 | 
72 | OC[C@H]1Nc2ccc(-c3ccc(F)cc3)cc2[C@H]2[C@@H]1CCN2Cc1ccc(F)cc1 | 4.35 | 
73 | O=C(Nc1cccc(F)c1)N1CCCCN2[C@@H](CO)[C@@H](c3ccc(C#CC4CC4)cc3)[C@@H]2C1 | 4.45 | 
74 | O=C(C[C@H]1CC[C@H]2[C@@H](COC[C@H](O)CN2C(=O)Nc2ccc(Cl)c(Cl)c2)O1)NC1CCC1 | 5.44 | 
75 | Cc1ccccc1-c1ccc(C2[C@@H]3CN(C(=O)C4CCCCC4)C[C@H]2N3)cc1 (some centres undefined) | 4.22 | 
76 | O=C(NC[C@H]1N[C@H](CO)[C@@H]1c1ccc(C2=CCCCC2)cc1)c1ccc(F)cc1 | 4.54 | 
77 | COc1cc(CN2C[C@@H]3N[C@H](C2)C3c2ccc(-c3cccc(OC)c3)cc2)cc(OC)c1 (some centres undefined) | 4.88 and 4.86 | 
78 | Fc1ccc(CN2[C@@H]3CNC[C@H]2C3c2ccc(-c3ccccc3)cc2)cc1 (some centres undefined) | 4.54 | 
79 | COc1ccc(C#Cc2ccc([C@@H]3[C@H]4CN(Cc5ccccc5F)CCCCN4[C@H]3CO)cc2)cc1 | 4.86 | 
